Measurements from patent publication US20250320250A1, “PHARMACEUTICAL COMPOSITIONS FOR THE TREATMENT OF VISCERAL PAIN” (Ironwood Pharmaceuticals, Inc., priority 2021, published 2025).

Tested on: visceral hypersensitivity and bladder dysfunction
Experiment: Nonclinical pharmacology models of visceral hypersensitivity and bladder dysfunction
Format: in vivo
Settings: doses above 10 μg/kg/day
Protocol: The peptide of the present disclosure doses of 100 μg and 300 μg were selected based on nonclinical pharmacology models of visceral hypersensitivity and bladder dysfunction using the peptide of the present disclosure and another GC-C agonist, linaclotide, with similar activity. […] The human equivalent daily dose (HED) extrapolated from pharmacologically active dose levels in nonclinical models is 180 μg to 600 μg (based on body weight) and 15 μg to 100 μg based on body surface area. Choosing 2 doses for investigation in this study should allow for observation of a dose response.

peptide of the present disclosure: GC-C agonist peptide, active pharmaceutical ingredient of the rectal foam composition (CXELCCNVACYGC; not fully specified; SITE 2 X is a homocysteine contributing to a cystathionine unit (linking the homocysteine at residue 2 and cysteine at residue 10 via a thioether bond); DISULFID 1..6 Intrachain; DISULFID 5..13 Intrachain; CROSSLNK 2..10 homocysteine at position 2 and the cysteine at position 10 are connected by an internal sulfide (or thioether bond); SITE 1 Optionally acetylated N-terminus)
benefit at higher doses: diminishing benefit
